From patent EP4603105A1, “PHARMACEUTICAL COMPOSITION CONTAINING CYCLIC COMPOUND HAVING SELECTIVE KRAS INHIBITORY EFFECT AGAINST HRAS AND NRAS” (CHUGAI SEIYAKU KABUSHIKI KAISHA, priority 2022, dated 2024)

Legend:
[1] = target: GDP-bound NRAS wild-type protein (Homo sapiens, UniProt P01111); experiment: Binding to NRAS by surface plasmon resonance (SPR), KD and KD ratio to KRAS; conditions: ratio of KD for GDP-bound NRAS wild-type protein to KD for KRAS
Method in brief: (§1)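 Each cycle, GDP-bound biotin-Avi RAS was captured (~100–300 RU), compound concentrations were injected low to high for 75 s each at 100 µL/min, then the chip was regenerated. Buffer: HBS pH 7.4, 10 mM MgCl2, 10 µM GDP, 1 mM DTT, 4% DMSO; 30°C. KD from a 1:1 binding model.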

HRAS wild-type protein = HRAS wild-type protein (Homo sapiens, UniProt P01112); experiment: Binding to HRAS by surface plasmon resonance (SPR), KD and KD ratio to KRAS; conditions: ratio of KD for HRAS wild-type protein to KD for KRAS
Method in brief: as §1

[2] = tested on: human lung cancer strain NCI-H441; type: cell-based
Method in brief: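 Signal came from […] measured per well once the reagent was added. Beforehand, cells were cultured at 37°C and 5% carbon dioxide on a compound series serially diluted in dimethyl sulfoxide.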

GDP-bound NRAS wild-type protein, sequence (P01111 whole entry): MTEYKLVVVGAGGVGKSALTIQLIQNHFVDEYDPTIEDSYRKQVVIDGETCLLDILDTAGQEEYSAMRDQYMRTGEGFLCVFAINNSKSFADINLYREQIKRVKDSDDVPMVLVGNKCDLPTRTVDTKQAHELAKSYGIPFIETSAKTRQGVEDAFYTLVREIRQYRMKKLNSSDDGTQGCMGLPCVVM
HRAS wild-type protein, sequence (P01112 whole entry): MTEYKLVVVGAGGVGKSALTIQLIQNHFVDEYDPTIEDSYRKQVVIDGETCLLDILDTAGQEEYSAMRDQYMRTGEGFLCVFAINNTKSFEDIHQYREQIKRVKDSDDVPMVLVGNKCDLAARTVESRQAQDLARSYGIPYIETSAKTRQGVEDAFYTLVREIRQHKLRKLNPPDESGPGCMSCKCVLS

Row | IC50 [2] | Compound | NRAS /KRAS [1] | HRAS /KRAS (HRAS wild-type protein)
1 | 275 nM | CC[C@H](C)[C@@H]1NC(=O)[C@H](CC(C)C)N(C)C(=O)C[C@@H](C(=O)N2CCOCC2)N(C)C(=O)[C@H](C2CCCC2)N(C)C(=O)C2(CCC2)NC(=O)[C@@H]2C[C@@H](OCC3CC3)CN2C(=O)[C@H](CCc2cc(F)c(C(F)(F)F)c(F)c2)NC(=O)CN(C)C(=O)[C@H](Cc2ccc(C(F)(F)F)cc2)N2CCCCC[C@@H](C2=O)N(C)C(=O)CN(C)C1=O [PP1005] | A (a compound having 10 or more and less than 20 is denoted as A) | A (a compound having 10 or more and less than 20 is denoted as A)
2 | 61.2 nM | CC[C@H](C)[C@@H]1NC(=O)[C@H](CC(C)C)N(C)C(=O)C[C@@H](C(=O)N2CCOCC2)N(C)C(=O)[C@H](C2CCCC2)N(C)C(=O)C2(CCC2)NC(=O)[C@@H]2C[C@@H](OC)CN2C(=O)[C@H](CCc2cc(F)c(C(F)(F)F)c(F)c2)NC(=O)CN(C)C(=O)[C@H](Cc2ccc(C(F)(F)F)cc2)N2CCCCC[C@@H](C2=O)N(C)C(=O)CN(C)C1=O [PP1016] | A (a compound having 10 or more and less than 20 is denoted as A) | B (a compound having 3 or more and less than 10 is denoted as B)
3 | 5 nM | CCO[C@@H]1C[C@H]2C(=O)NC3(CCCC3)C(=O)N(C)[C@@H](C3CCCC3)C(=O)N(C)[C@H](C(=O)N(C)C)CC(=O)N(C)[C@@H](CC(C)C)C(=O)N[C@@H]([C@@H](C)CC)C(=O)N(C)CC(=O)N(C)[C@H]3C[C@@H](C)CCN(C3=O)[C@@H](Cc3ccc(C(F)(F)F)cc3)C(=O)N(C)CC(=O)N[C@@H](CCc3cc(F)c(C(F)(F)F)c(F)c3)C(=O)N2C1 [PP1017] | C (A compound having a KD ratio of 0.1 or more and less than 3 is denoted as C) | B (a compound having 3 or more and less than 10 is denoted as B)
4 | 7.4 nM | CCO[C@@H]1C[C@H]2C(=O)NC3(CCC3)C(=O)N(C)[C@@H](C3CCCC3)C(=O)N(C)[C@H](C(=O)N(C)C)CC(=O)N(C)[C@@H](CC(C)C)C(=O)N[C@@H]([C@@H](C)CC)C(=O)N3CC[C@H]3C(=O)N(C)[C@H]3C[C@@H](C)CCN(C3=O)[C@@H](Cc3ccc(C(F)(F)F)cc3)C(=O)N(C)CC(=O)N[C@@H](CCc3cc(F)c(C(F)(F)F)c(F)c3)C(=O)N2C1 [PP1019] | C (A compound having a KD ratio of 0.1 or more and less than 3 is denoted as C) | B (a compound having 3 or more and less than 10 is denoted as B)
5 | 18 nM | CCO[C@@H]1C[C@H]2C(=O)NC3(CCC3)C(=O)N(C)[C@@H](C3CCCC3)C(=O)N(C)[C@H](C(=O)N(C)C)CC(=O)N(C)[C@@H](CC)C(=O)N[C@@H]([C@@H](C)CC)C(=O)N(C)CC(=O)N(C)[C@H]3C[C@@H](C)CCN(C3=O)[C@@H](Cc3ccc(C(F)(F)F)cc3)C(=O)N(C)CC(=O)N[C@@H](CCc3cc(F)c(C(F)(F)F)c(F)c3)C(=O)N2C1 [PP1020] | C (A compound having a KD ratio of 0.1 or more and less than 3 is denoted as C) | B (a compound having 3 or more and less than 10 is denoted as B)
6 | 14 nM | CCO[C@@H]1C[C@H]2C(=O)NC3(CCC3)C(=O)N(C)[C@@H](C3CCCC3)C(=O)N(C)[C@H](C(=O)N(C)C)CC(=O)N(C)[C@@H](CC)C(=O)N[C@@H]([C@@H](C)CC)C(=O)N3CC[C@H]3C(=O)N(C)[C@H]3C[C@@H](C)CCN(C3=O)[C@@H](Cc3ccc(C(F)(F)F)cc3)C(=O)N(C)CC(=O)N[C@@H](CCc3cc(F)c(C(F)(F)F)c(F)c3)C(=O)N2C1 [PP1021] | C (A compound having a KD ratio of 0.1 or more and less than 3 is denoted as C) | B (a compound having 3 or more and less than 10 is denoted as B)
7 | 17.5 nM | CCO[C@@H]1C[C@H]2C(=O)NC3(CCCC3)C(=O)N(C)[C@@H](C3CCCC3)C(=O)N(C)[C@H](C(=O)N(C)C)CC(=O)N(C)[C@@H](CC)C(=O)N[C@@H]([C@@H](C)CC)C(=O)N(C)CC(=O)N(C)[C@H]3C[C@@H](C)CCN(C3=O)[C@@H](Cc3ccc(C(F)(F)F)cc3)C(=O)N(C)CC(=O)N[C@@H](CCc3cc(F)c(C(F)(F)F)c(F)c3)C(=O)N2C1 [PP1022] | C (A compound having a KD ratio of 0.1 or more and less than 3 is denoted as C) | B (a compound having 3 or more and less than 10 is denoted as B)

Further lines, the compound ahead of its results:

Row | Compound | IC50 [2] | NRAS /KRAS [1] | HRAS /KRAS (HRAS wild-type protein)
8 | CCO[C@@H]1C[C@H]2C(=O)NC3(CCC3)C(=O)N(C)[C@@H](C3CCCC3)C(=O)N(C)[C@H](C(=O)N(C)C)CC(=O)N(C)[C@@H](CC)C(=O)N[C@@H]([C@@H](C)CC)C(=O)N(C)CC(=O)N(C)[C@H]3CCCCN(C3=O)[C@@H](Cc3ccc(C(F)(F)F)cc3)C(=O)N(C)CC(=O)N[C@@H](CCc3cc(Cl)c(Cl)c(Cl)c3)C(=O)N2C1 [PP0988] | 10.3 nM | C (A compound having a KD ratio of 0.1 or more and less than 3 is denoted as C) | B (a compound having 3 or more and less than 10 is denoted as B)
9 | CCO[C@@H]1C[C@H]2C(=O)NC3(CCC3)C(=O)N(C)[C@@H](C3CCCC3)C(=O)N(C)[C@H](C(=O)N(C)C)CC(=O)N(C)[C@@H](CC)C(=O)N[C@@H]([C@@H](C)CC)C(=O)N(C)CC(=O)N(C)[C@H]3CCCCCN(C3=O)[C@@H](Cc3ccc(C(F)(F)F)cc3)C(=O)N(C)CC(=O)N[C@@H](CCc3cc(Cl)c(C(F)(F)F)c(Cl)c3)C(=O)N2C1 [PP0989] | 135 nM | B (a compound having 3 or more and less than 10 is denoted as B) | B (a compound having 3 or more and less than 10 is denoted as B)
10 | CCO[C@@H]1C[C@H]2C(=O)N[C@]3(C)CCCCCC[C@@H](C(=O)N[C@@H]([C@@H](C)CC)C(=O)N(C)CC(=O)N(C)[C@H]4CCCCN(C4=O)[C@@H](Cc4ccc(C(F)(F)F)cc4)C(=O)N(C)CC(=O)N[C@@H](CCc4cc(F)c(C(F)(F)F)c(F)c4)C(=O)N2C1)N(C)C(=O)C[C@@H](C(=O)N1CCOCC1)N(C)C(=O)[C@H](C1CCCC1)N(C)C3=O [PP0992] | 790 nM | B (a compound having 3 or more and less than 10 is denoted as B) | B (a compound having 3 or more and less than 10 is denoted as B)
11 | CCO[C@@H]1C[C@H]2C(=O)N[C@@]3(C)CCCCCCC[C@@H](C(=O)N[C@@H]([C@@H](C)CC)C(=O)N(C)CC(=O)N(C)[C@H]4CCCCN(C4=O)[C@@H](Cc4ccc(C(F)(F)F)cc4)C(=O)N(C)CC(=O)N[C@@H](CCc4cc(F)c(C(F)(F)F)c(F)c4)C(=O)N2C1)N(C)C(=O)C[C@@H](C(=O)N1CCOCC1)N(C)C(=O)[C@H](C1CCCC1)N(C)C3=O [PP0993] | 332 nM | B (a compound having 3 or more and less than 10 is denoted as B) | B (a compound having 3 or more and less than 10 is denoted as B)
12 | CC[C@H](C)[C@@H]1NC(=O)[C@H](CC(C)C)N(C)C(=O)C[C@@H](C(=O)N2CCOCC2)N(C)C(=O)[C@H](C2CCCC2)N(C)C(=O)C2(CCC2)NC(=O)[C@@H]2C[C@@H](OCCC(F)(F)F)CN2C(=O)[C@H](CCc2cc(F)c(C(F)(F)F)c(F)c2)NC(=O)CN(C)C(=O)[C@H](Cc2ccc(C(F)(F)F)cc2)N2CCCC[C@@H](C2=O)N(C)C(=O)CN(C)C1=O [PP0998] | 19.7 nM | B (a compound having 3 or more and less than 10 is denoted as B) | B (a compound having 3 or more and less than 10 is denoted as B)
13 | CC[C@H](C)[C@@H]1NC(=O)[C@H](CC(C)C)N(C)C(=O)C[C@@H](C(=O)N2CCOCC2)N(C)C(=O)[C@H](C2CCCC2)N(C)C(=O)C2(CCC2)NC(=O)[C@@H]2C[C@@H](OCC(F)F)CN2C(=O)[C@H](CCc2cc(F)c(C(F)(F)F)c(F)c2)NC(=O)CN(C)C(=O)[C@H](Cc2ccc(C(F)(F)F)cc2)N2CCCC[C@@H](C2=O)N(C)C(=O)CN(C)C1=O [PP1002] | 2.1 nM | B (a compound having 3 or more and less than 10 is denoted as B) | B (a compound having 3 or more and less than 10 is denoted as B)
14 | CC[C@H](C)[C@@H]1NC(=O)[C@H](CC(C)C)N(C)C(=O)C[C@@H](C(=O)N2CCOCC2)N(C)C(=O)[C@H](C2CCCC2)N(C)C(=O)C2(CCC2)NC(=O)[C@@H]2C[C@@H](OC)CN2C(=O)[C@H](CCc2cc(F)c(C(F)(F)F)c(F)c2)NC(=O)CN(C)C(=O)[C@H](Cc2ccc(C(F)(F)F)cc2)N2CCCC[C@@H](C2=O)N(C)C(=O)CN(C)C1=O [PP1003] | 29.1 nM | C (A compound having a KD ratio of 0.1 or more and less than 3 is denoted as C) | B (a compound having 3 or more and less than 10 is denoted as B)
15 | CCCCO[C@@H]1C[C@H]2C(=O)NC3(CCC3)C(=O)N(C)[C@@H](C3CCCC3)C(=O)N(C)[C@H](C(=O)N3CCOCC3)CC(=O)N(C)[C@@H](CC(C)C)C(=O)N[C@@H]([C@@H](C)CC)C(=O)N(C)CC(=O)N(C)[C@H]3CCCCCN(C3=O)[C@@H](Cc3ccc(C(F)(F)F)cc3)C(=O)N(C)CC(=O)N[C@@H](CCc3cc(F)c(C(F)(F)F)c(F)c3)C(=O)N2C1 [PP1004] | 255 nM | B (a compound having 3 or more and less than 10 is denoted as B) | B (a compound having 3 or more and less than 10 is denoted as B)
